# Patent US20230233576A1, “ECLITASERTIB FOR USE IN TREATING CONDITIONS INVOLVING SYSTEMIC HYPERINFLAMMATORY RESPONSE” (priority 2020, published 2023)
# Test system: adult participants hospitalized for severe COVID-19
# Test: Phase 1b severe COVID-19 study: oxygenation (SpO2, SpO2/FiO2 ratio, days without oxygen support, VFD, RFFD)
# Type: in vivo, human
# Details: for Change from baseline in SpO2/FiO2 ratio, point estimate / Change from baseline in SpO2/FiO2 ratio, adjusted treatment difference RIPK1 Inhibitor vs placebo: MMRM, LOCF; for median change from baseline in SpO2/FiO2 ratio: observed data; for median change in SpO2/FiO2 ratio from baseline: LOCF imputation
# Procedure: This study was a multinational, multi-center, double-blind, 2:1 randomized (RIPK1 Inhibitor to placebo), placebo-controlled study in adult participants hospitalized for severe COVID-19.
# Participants were assigned to treatment according to randomization list. Six RIPK1 Inhibitor 50 mg capsules (300 mg) or matching placebo capsules were administered orally in fasting or fed conditions twice a day (BID). For participants intubated with feeding tube in place, the IMPs were given as suspension by feeding tube.
# The main secondary clinical assessments endpoints included: • Time to 50% decrease from baseline in CRP level • Time to improvement of oxygenation as measured by oxygen saturation≥92% breathing room air over 48 hours or until discharge • Change from baseline in SPO2/FiO2 ratio at Day 7
# Other secondary clinical assessment endpoints included: • Number of Days without need for oxygen support and alive (oxygen saturation≥92% breathing room air) up to Day 28 • Numbers of Ventilator-free days and alive up to Day 28 • Change from baseline in markers of inflammation (White blood cell count, differential blood lymphocytes, neutrophil to lymphocyte ratio, IL-6) and D-Dimer at Day 7 and EOT • Incidence of Deaths up to Day 28 • Percentage of participants receiving thrombolytic treatment up to Day 28 • Percentage of participants receiving vasopressor treatment up to Day 28 • Numbers of Respiratory Failure-Free Days (RFFD) and alive up to Day 28
# The time to improvement of oxygenation as measured by oxygen saturation>92% breathing room air over 48 hours or until discharge was estimated using the Kaplan-Meier approach and treatment arms were compared in an exploratory fashion using the log-rank test.
# Presence of SO2≥92% without use of any supplemental oxygen device on two consecutive days (earliest occurrence) or at day of discharge was considered as event. If such criterion was not met, time to event was censored at the time point of the last observation of SpO2 collected. For participants who died during the study without experiencing the event, similar LOCF approached was used and a sensitivity analysis was performed as described in Section 1.7.1.1.2.1.
# The number and percentage of participants who experience the event without applying censoring rules was reported at Days 3, 5, 7, 15 and 28.
# The analysis of the change from baseline in SpO2/FiO2 ratio was based on a MMRM model fitted on observed values for Days 2, 3, 4, 5, 6, 7 and 15. The model included fixed effects for participant-specific SpO2/FiO2 ratio at baseline, respective visit, treatment group, and visit-by-treatment group interaction, and random effects for sites. Repeated measurements for each visit were taken within participant assuming an unstructured covariance pattern within treatment group.
# The LS means for the difference in change from baseline at Day 7 between RIPK1 Inhibitor and placebo were provided, jointly with the corresponding 90% confidence interval.
# The point estimate of the change from baseline in SpO2/FiO2 ratio and the difference between treatment groups and two-sided 90% confidence interval value were reported for Day 2 to 7 and EOT as described above. Time profile plots of point estimates of the change from baseline (+/−90% Cis) were presented by treatment group.
# Missing values for the change from baseline in SpO2/FiO2 ratio were replaced following the LOCF approach, regardless if occurring before or after discontinuation/discharge/death. In case no LOCF could be identified (e.g., no post-baseline value prior to Day 2 to replace a missing Day 2 result), the missing value was not imputed. A sensitivity analysis was performed by repeating the above analysis without any imputation of missing values.
# [1] = 600 mg, Baseline, Efficacy population
# [2] = 600 mg, Day 2, Efficacy population
# [3] = 600 mg, Day 3, Efficacy population
# [4] = 600 mg, Day 4, Efficacy population
# [5] = 600 mg, Day 5, Efficacy population
# [6] = 600 mg, Day 6, Efficacy population
# [7] = 600 mg, Day 7, Efficacy population
# [8] = 600 mg, Day 8, Efficacy population
# [9] = 600 mg, Day 9, Efficacy population
# [10] = 600 mg, Day 10, Efficacy population
# [11] = 600 mg, Day 11, Efficacy population
# [12] = 600 mg, Day 12, Efficacy population
# [13] = 600 mg, Day 13, Efficacy population
# [14] = 600 mg, Day 14, Efficacy population
# [15] = 600 mg, Day 15, Efficacy population
# [16] = 600 mg, up to Day 28, Efficacy population
smiles,measurement,setting,value
"CN1C(=O)[C@@H](NC(=O)c2nnc(Cc3ccccc3)[nH]2)COc2cccnc21 [RIPK1 Inhibitor, (S)-5-benzyl-N-(5-methyl-4-oxo-2,3,4,5-tetrahydropyrido[3,2-b][1,4]oxazepin-3-yl)-4H-1,2,4-triazole-3-carboxamide]",difference of VFDs or RFFDs between the 2 treatment arms in favor of RIPK1 Inhibitor,"600 mg vs placebo, based on mean values, 28-day study period",3
same,"difference in mean days (without oxygen support, VFDs, RFFDs) in favor of RIPK1 Inhibitor group","600 mg vs placebo, up to 15-day treatment period",1 days
same,"SpO2/FiO2 ratio, raw data, Mean",[1],298.0
same,"SpO2/FiO2 ratio, raw data, Median",[1],306.3
same,"SpO2/FiO2 ratio, change from baseline, Mean",[2],16.8
same,"SpO2/FiO2 ratio, change from baseline, Median",[2],3.3
same,"SpO2/FiO2 ratio, raw data, Mean",[2],314.8
same,"SpO2/FiO2 ratio, raw data, Median",[2],290.9
same,"Change from baseline in SpO2/FiO2 ratio, point estimate","600 mg, Day 02, Efficacy population",72.02
same,median change from baseline in SpO2/FiO2 ratio,"600 mg, Day 2",3.3
same,"SpO2/FiO2 ratio, change from baseline, Mean",[3],43.9
same,"SpO2/FiO2 ratio, change from baseline, Median",[3],30.9
same,"SpO2/FiO2 ratio, raw data, Mean",[3],337.9
same,"SpO2/FiO2 ratio, raw data, Median",[3],330.6
same,median change in SpO2/FiO2 ratio from baseline,"600 mg, Day 3",29.0
same,"Change from baseline in SpO2/FiO2 ratio, point estimate","600 mg, Day 03, Efficacy population",97.90
same,"SpO2/FiO2 ratio, change from baseline, Mean",[4],50.8
same,"SpO2/FiO2 ratio, change from baseline, Median",[4],47.3
same,"SpO2/FiO2 ratio, raw data, Mean",[4],340.4
same,"SpO2/FiO2 ratio, raw data, Median",[4],355.5
same,median change in SpO2/FiO2 ratio from baseline,"600 mg, Day 4",38.1
same,"Change from baseline in SpO2/FiO2 ratio, point estimate","600 mg, Day 04, Efficacy population",104.61
same,median change from baseline in SpO2/FiO2 ratio,"600 mg, Day 4",47.3
same,"SpO2/FiO2 ratio, change from baseline, Mean",[5],62.7
same,"SpO2/FiO2 ratio, change from baseline, Median",[5],69.6
same,"SpO2/FiO2 ratio, raw data, Mean",[5],350.5
same,"SpO2/FiO2 ratio, raw data, Median",[5],356.1
same,median change in SpO2/FiO2 ratio from baseline,"600 mg, Day 5",70.8
same,"Change from baseline in SpO2/FiO2 ratio, point estimate","600 mg, Day 05, Efficacy population",121.79
same,"SpO2/FiO2 ratio, change from baseline, Mean",[6],72.5
same,"SpO2/FiO2 ratio, change from baseline, Median",[6],73.9
same,"SpO2/FiO2 ratio, raw data, Mean",[6],358.7
same,"SpO2/FiO2 ratio, raw data, Median",[6],384.0
same,median change in SpO2/FiO2 ratio from baseline,"600 mg, Day 6",113.8
same,"Change from baseline in SpO2/FiO2 ratio, point estimate","600 mg, Day 06, Efficacy population",134.66
same,"Change from baseline in SpO2/FiO2 ratio, adjusted treatment difference RIPK1 Inhibitor vs placebo",[6],28.71
same,median change from baseline in SpO2/FiO2 ratio,"600 mg, Day 6",73.9
same,"SpO2/FiO2 ratio, change from baseline, Mean",[7],89.2
same,"SpO2/FiO2 ratio, change from baseline, Median",[7],124.1
same,"SpO2/FiO2 ratio, raw data, Mean",[7],367.1
same,"SpO2/FiO2 ratio, raw data, Median",[7],418.2
same,median change in SpO2/FiO2 ratio from baseline,"600 mg, Day 7",115.3
same,"Change from baseline in SpO2/FiO2 ratio, point estimate","600 mg, Day 07, Efficacy population",142.21
same,"Change from baseline in SpO2/FiO2 ratio, adjusted treatment difference RIPK1 Inhibitor vs placebo",[7],25.24
same,median change from baseline in SpO2/FiO2 ratio,"600 mg, Day 7",124.1
same,"SpO2/FiO2 ratio, change from baseline, Mean",[8],99.2
same,"SpO2/FiO2 ratio, change from baseline, Median",[8],131.4
same,"SpO2/FiO2 ratio, raw data, Mean",[8],371.5
same,"SpO2/FiO2 ratio, raw data, Median",[8],433.3
same,median change in SpO2/FiO2 ratio from baseline,"600 mg, Day 8",125.6
same,"SpO2/FiO2 ratio, change from baseline, Mean",[9],111.2
same,"SpO2/FiO2 ratio, change from baseline, Median",[9],150.0
same,"SpO2/FiO2 ratio, raw data, Mean",[9],381.8
same,"SpO2/FiO2 ratio, raw data, Median",[9],445.2
same,"SpO2/FiO2 ratio, change from baseline, Mean",[10],119.8
same,"SpO2/FiO2 ratio, change from baseline, Median",[10],133.8
same,"SpO2/FiO2 ratio, raw data, Mean",[10],386.7
same,"SpO2/FiO2 ratio, raw data, Median",[10],447.6
same,"SpO2/FiO2 ratio, change from baseline, Mean",[11],111.0
same,"SpO2/FiO2 ratio, change from baseline, Median",[11],153.7
same,"SpO2/FiO2 ratio, raw data, Mean",[11],373.2
same,"SpO2/FiO2 ratio, raw data, Median",[11],445.2
same,"SpO2/FiO2 ratio, change from baseline, Mean",[12],138.8
same,"SpO2/FiO2 ratio, change from baseline, Median",[12],190.3
same,"SpO2/FiO2 ratio, raw data, Mean",[12],401.0
same,"SpO2/FiO2 ratio, raw data, Median",[12],452.4
same,"SpO2/FiO2 ratio, change from baseline, Mean",[13],129.1
same,"SpO2/FiO2 ratio, change from baseline, Median",[13],195.1
same,"SpO2/FiO2 ratio, raw data, Mean",[13],389.5
same,"SpO2/FiO2 ratio, raw data, Median",[13],457.1
same,"SpO2/FiO2 ratio, change from baseline, Mean",[14],139.4
same,"SpO2/FiO2 ratio, change from baseline, Median",[14],192.7
same,"SpO2/FiO2 ratio, raw data, Mean",[14],414.8
same,"SpO2/FiO2 ratio, raw data, Median",[14],454.8
same,"SpO2/FiO2 ratio, change from baseline, Mean",[15],160.6
same,"SpO2/FiO2 ratio, change from baseline, Median",[15],195.1
same,"SpO2/FiO2 ratio, raw data, Mean",[15],436.0
same,"SpO2/FiO2 ratio, raw data, Median",[15],457.1
same,median change in SpO2/FiO2 ratio from baseline,"600 mg, Day 15",135.1
same,"Change from baseline in SpO2/FiO2 ratio, point estimate",[15],174.65
same,median change from baseline in SpO2/FiO2 ratio,"600 mg, Day 15",195.1
same,median time to improvement of oxygenation (SpO2 >=92% breathing room air),"600 mg, Kaplan-Meier, Efficacy population",6 days
same,"Number of Days without need for Oxygen Support and Alive, Mean",[16],20.5 days
same,"Number of Days without need for Oxygen Support and Alive, Median",[16],23.0 days
same,"Number of Respiratory Failure-Free Days and Alive, Mean",[16],25.9 days
same,"Number of Respiratory Failure-Free Days and Alive, Median",[16],28.0 days
same,"Number of Ventilator-Free Days and Alive, Mean",[16],26.0 days
same,"Number of Ventilator-Free Days and Alive, Median",[16],28.0 days
